Like-named read-outs stand apart in the source and are kept apart here.
What was measured:
HGPRT = HGPRT (Homo sapiens, UniProt P00492); conditions: for TIMP generation (6-MP conversion by HGPRT): 100 μM 6-MP as reaction substrate, increased concentration of hypoxanthine; for affinity to HGPRT (Km): compared with that of 6-MP and HGPRT
Experimental: Chemotherapeutic drug 6-MP is an analog of hypoxanthine, and both 6-MP and hypoxanthine are substrates of HGPRT. The present invention established an in vitro enzymatic reaction to determine the Km value of 6-MP and hypoxanthine reacting with HGPRT, respectively, which reflects the affinity of HGPRT to hypoxanthine and 6-MP. The preferred embodiment is as follows:
The specific reaction system is as follows:
Hypoxanthine and 6-MP were diluted in a concentration gradient, reacted at 37° C. for 1 hour, and 80% methanol was added to terminate the reaction. The contents of IMP and TIMP were detected by LC-MS. The reaction curves were plotted and the Km values of hypoxanthine and 6-MP were calculated by Graphpad 5.0 software.

[1] = system: Reh cells expressing different PRPS1 mutant genes; assay: Drug susceptibility test of 6-MP / 6-TG (cell survival, CellTiter-Glo); type: cell-based, human; conditions: Reh cells expressing PRPS1 mutant genes compared with control group expressing empty load; 72 hours
Experimental: Reh cells are a strain of human acute B lymphoblastic leukemia. The susceptibility of the PRPS1 mutant to the chemotherapeutic drug 6-MP was determined by the survival rate of Reh cells expressing different PRPS1 mutant genes which were treated by chemotherapeutic drug 6-MP, wherein the process comprises steps of
(i) Cell inoculation: Reh cells expressing the PRPS1 wild-type and all kinds of PRPS1 mutants were counted and seeded into 96-well plates with inoculated 10^4 cells per well. Five parallel wells were designed.
Drugs were added into 96-well plates with grown cells and incubated at 37° C. for 72 hours.
The susceptibility of the PRPS1 mutant to the chemotherapeutic drug 6-TG was determined by the survival rate of Reh cells expressing different PRPS1 mutant genes which were treated by chemotherapeutic drug 6-TG, in which the process comprises steps of
(i) Cell inoculation: Reh cells expressing the PRPS1 wild-type and all kinds of PRPS1 mutants were counted and seeded into 96-well plates with inoculated 10^4 cells per well. Five parallel wells were set up.
Drug were added into 96-well plates with grown cells and incubated at 37° C. for 72 hours.

[2] = system: Reh cells expressing PRPS1 mutant genes; assay: Identification of cells apoptosis (Annexin V / 7-AAD flow cytometry); type: cell-based, human; conditions: 10 μg/ml 6-MP or 6-TG, 72 hours; cells expressing PRPS1 mutant genes compared with control group expressing empty load
Experimental: (i) Cell inoculation: Reh cells expressing the PRPS1 wild-type and various PRPS1 mutants were counted and seeded into 12-well plates with inoculated 3×10^5 cells per well. Duplicated wells were set up.
(ii) Cell treatment: the drug 6-MP or 6-TG with concentration of 10 μg/ml was added to a 12-well plate with grown cells and incubated at 37° C. for 72 hours.
(iii) Cell staining: After 72 hours, the cells were collected by centrifugation, washed with PBS buffer, added in […] and 7-AAD dye labeled with PE from BD, and incubated for 15 minutes at room temperature. The cells were centrifuged to discard the supernatant and washed twice with PBS. (iv) Identification by Flow Cytometer: proportion of cell apoptosis was determined using Flow Cytometer from Canto II BD.

[3] = system: PRPS1 loss-of-function mutants A87T and M115T; assay: Inhibition of GDP/ADP on PRPS1 protein activity in vitro (Kinase-Glo); type: biochemical, human; conditions: known loss-of-function mutants A87T and M115T compared with wild-type
Experimental: (§1) ATP (Item No. A7699), ADP (Item No. A2754), GDP (Item No. G7172) and ribose-5-phosphate (Item No. R7750) were purchased from Sigma. The reaction system comprised 50 mM Tris pH 7.5, 2 mM phosphate, 1 mM DTT, 10 mM MgCl2, 0.5 mM ribose-5-phosphate, 0.5 mM ATP and PRPS1 protein.
(§2) (ii) Inhibition of GDP/ADP on PRPS1 protein activity: 3 times gradient dilution of the GDP/ADP with an initial concentration of 5 mM And 15 μL of PRPS1 in vitro enzyme reaction system was prepared, added into 384-well plate, and reacted at 37° C. for 30 minutes. Then 10 μL of Kinase-Glo reagent (Item No. V3722) from Promega was added reacted at 37° C. for 15 minutes to terminate the reaction. The chemiluminescence values can be read in a microplate reader, and the inhibition of GDP/ADP on PRPS1 protein activity was calculated by Graphpad 5.0.

[4] = system: PRPS1 mutants S103T, 5103N, N144S, T303S, K176N, D183E, A190T, A190V, L191F; assay: as above; type: biochemical, human; conditions: relapse-specific PRPS1 mutants compared with PRPS1 wild-type
Experimental: as §1, §2

[5] = system: Reh cells expressing PRPS1 mutant genes; assay: Cell-level feedback regulation of PRPS1 activity by GDP/ADP (13C5-PRPP by LC-MS); type: cell-based, human; conditions: each PRPS1 mutant gene in experimental group; 2 mM ADP or 0.5 mM GDP, 4 hours
Experimental: (§3) In the present invention, the intracellular activity of PRPS1 was detected by means of isotope labeling in combination with the technologies of cell biology and metabolomics, and based on this, the effect of nucleotide GDP/ADP on PRPS1 activity was evaluated. The preferred embodiment is as follows:
(§4) (i) Cell culture: Reh cells expressing the PRPS1 wild-type and various PRPS1 mutants were counted and seeded into 6 cm culture dish, and 3×10^6 cells were inoculated in each well.
(§5) (ii) Cell treatment: 2 mM ADP or 0.5 mM GDP was added to the culture dish and cells were treated for 4 hours, after that, the cells were resuspended using glucose-free medium (Gibco, cat #11879-020), and 10 mM glucose labeled with ^13C6 was added into each 6 cm culture dish (Cambridge isotope laboratories, cat #CLM-1396-1) and labeled for 5 minutes. (iii) Cell collection: The cells were transferred to a centrifuge tube, centrifuged at 3,000 g for 5 minutes, the supernatant was removed, and the cells were lysed using 3×10^6 cells/200 μl 80% methanol. (iv) The level of ^13C5-PRPP was detected by LC-MS (ABI 5500 Qtrap coupled with Waters Acquity UPLC), and standard curve quantification was made using PRPP (sigma, cat #P8296). The activity of PRPS1 was determined according to the level of PRPP.

[6] = system: Reh cells expressing the PRPS1 wild-type; assay: as above; type: cell-based, human; conditions: wild-type experimental group; 2 mM ADP or 0.5 mM GDP, 4 hours
Experimental: as §3, §4, §5

[7] = system: Reh cells expressing PRPS1 mutants; assay: Identification of intracellular metabolites of 6-MP by LC-MS; type: cell-based, human; conditions: 10 μM 6-MP, 4 hours; mutants in experimental groups compared with control group
Experimental: 6-MP is a prodrug and needs to be undergone metabolic reactions in vivo to form TIMP and TGMP before it works, as shown in FIG. 9C. The identification procedure is as follows:
(i) Cell inoculation: Reh cells expressing the PRPS1 wild-type and various PRPS1 mutants were counted and seeded into 6 cm culture dish with inoculated 3×10^6 cells in each plate.
(ii) Cell treatment: 10 μM chemotherapy drug 6-MP was added into each 6 cm culture dish and treated for 4 hours;
(iii) Cell collection: The cells were transferred to a centrifuge tube, centrifuged at 3,000 g for 5 minutes to remove the supernatant, and lysed at 3×10^6 cells per 200 μl 80% methanol;
(iv) The amounts of metabolites from chemotherapeutic drugs 6-MP, TIMP, TGMP, r-MP, r-TG and r-MMP were measured by LC-MS (ABI 5500 Qtrap coupled with Waters Acquity UPLC), and standard curve for quantification was made using TIMP (Jean Bioscience, […], r-TG (Sigma, cat #858412), r-MMP (Sigma, cat #M4002) respectively.

Reh-PRPS1-A190T cells [8] = assay: Concentration of 6-MP metabolites in cells treated with Lometrexol (LC-MS); type: cell-based, human; conditions: Reh-PRPS1-A190T treated with Lometrexol vs control
From the text: (§6) (v) Determining the concentration of 6-MP metabolites: the same as Embodiment 13.

Reh-PRPS1-S103T cells [9] = assay: as above; type: cell-based, human; conditions: Reh-PRPS1-S103T treated with Lometrexol vs control
From the text: as §6

Reh-PRPS1-A190T cells [10] = assay: Intracellular concentration of hypoxanthine in cells treated with Lometrexol (LC-MS); type: cell-based, human; conditions: Reh-PRPS1-A190T treated with Lometrexol vs control
Experimental: (§7) (iii) Cell collection: cells were pipetted out from the well and centrifuged at 1500 rpm to remove the supernatant. The cells were washed with PBS once, and centrifuged again (500 g). Removed the supernatant.
(§8) (iv) Cell lysis: the cells were lysed using 200 μl 80% methanol per 3×10^6 cells.
(§9) (v) The lysed cells were centrifuged by 14,000 g at 4° C. for 10 minutes, and then the supernatant was transferred to a 1.5 ml EP tube.
(§10) (vi) The contents of hypoxanthine, AICAR and Inosine were detected by LC-MS technology (ABI 5500 Qtrap coupled with Waters Acquity UPLC), and standard curves for absolute quantification were made using ^13C5, ^15N4-hypoxanthine (Cambridge isotope laboratories, cat #489522), AICAR (sigma, cat #A9978) and Inosine (Sigma, cat #I4125), respectively.
(§11) (vi) Determining the intracellular concentration of hypoxanthine: the same as Embodiment 14.

Reh-PRPS1-S103T cells [11] = assay: as above; type: cell-based, human; conditions: Reh-PRPS1-S103T treated with Lometrexol vs control
Experimental: as §7, §8, §9, §10, §11

Chain of HGPRT (P00492 whole entry): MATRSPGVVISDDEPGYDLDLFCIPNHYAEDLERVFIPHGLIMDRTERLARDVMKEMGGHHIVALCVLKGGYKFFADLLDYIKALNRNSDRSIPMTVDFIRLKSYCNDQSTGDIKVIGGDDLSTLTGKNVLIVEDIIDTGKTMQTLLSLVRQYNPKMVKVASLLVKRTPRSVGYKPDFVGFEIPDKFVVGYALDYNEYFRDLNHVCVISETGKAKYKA

Row | Compound | IC50 values of drug [1] | apoptotic ratio of cells [2] | inhibition of GDP/ADP on PRPS1 protein activity [3] | inhibition of GDP/ADP on PRPS1 protein activity [4] | concentration of PRPP product after adding the nucleotide [5] | concentration of PRPP after adding the nucleotide [6] | also measured
1 | O=c1[nH]cnc2nc[nH]c12 [hypoxanthine] | – | – | – | – | – | – | TIMP generation (6-MP conversion by HGPRT) (HGPRT): significantly inhibited; TIMP generation (6-MP conversion by HGPRT) (HGPRT; listed as HX): can suppress; affinity to HGPRT (Km) (HGPRT): significantly higher; affinity to HGPRT (Km) (HGPRT; listed as HX): preferred to 6-MP
2 | Nc1nc2nc[nH]c2c(=S)[nH]1 [6-TG, 6-thioguanine] | significantly increased | significantly down-regulated | – | – | – | – | –
3 | Nc1nc2c(ncn2[C@@H]2O[C@H](COP(=O)(O)OP(=O)(O)O)[C@@H](O)[C@H]2O)c(=O)[nH]1 [GDP] | – | – | no significant difference | significantly lower | not affected | decreased | –
4 | Sc1ncnc2nc[nH]c12 [6-MP, 6-mercaptopurine] | significantly increased | significantly down-regulated | – | – | – | – | contents of 6-MP metabolites TIMP, TGMP and r-MP, r-TG and r-MMP in cells [7]: significantly lower
5 | Nc1ncnc2c1ncn2[C@@H]1O[C@H](COP(=O)(O)OP(=O)(O)O)[C@@H](O)[C@H]1O [ADP] | – | – | no significant difference | significantly lower | not affected | decreased | –
6 | Lometrexol | – | – | – | – | – | – | intracellular levels of 6-MP metabolites TIMP and TGMP (Reh-PRPS1-A190T cells [8]): significantly increased; intracellular levels of 6-MP metabolites TIMP and TGMP (Reh-PRPS1-S103T cells [9]): significantly increased; concentration of hypoxanthine (Reh-PRPS1-A190T cells [10]): significantly decreased; concentration of hypoxanthine (Reh-PRPS1-S103T cells [11]): significantly decreased
